{"source": "patent US12312308B2", "about": "“Salts and esters of APX3330 and therapeutic uses thereof” (Opus Genetics, Inc., priority 2022, dated 2025)", "test": "Dynamic vapor sorption (DVS) analysis", "assay_type": "physicochemical", "note": "Structures can show the parent of a compound that is named as a salt."}
{"smiles": "CCCCCCCCC/C(=C\\C1=C(C)C(=O)C(OC)=C(OC)C1=O)C(=O)O", "note": "[Compound 1 calcium salt]", "values": [{"measurement": "maximum water adsorption", "setting": "DVS, at 82% RH", "result": "about 1.52%"}, {"measurement": "water retained at the end of the desorption branch", "setting": "DVS, end of desorption branch", "result": 0.19, "unit": "%"}, {"measurement": "crystalline form after DVS (subsequent XRPD analysis)", "setting": "post-DVS sample vs pre-DVS sample, XRPD", "result": "maintained the same crystalline form"}]}
